Source: the supplement of paper PMC10307832

Columns and labels:
Test in all cases: relative viability (nuclei count vs DMSO), 5 days (fraction); higher = more cells survive
NCI-H647 = tested on: NCI-H647
Outline: (§1)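 Relative viability is defined as nuclei in treated wells over nuclei in vehicle wells. Duplicate plates were run and medians reported. Lung cancer cell lines in 1536-well plates were dosed by pin tool one day after seeding, with one drug or with a fixed anchor-drug dose plus five library-drug doses (not always all listed) in √10 steps, and nuclei were counted after 5 days.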

UMC-11 = tested on: UMC-11
Outline: as §1

COR-L23 = tested on: COR-L23
Outline: as §1

NCI-H1650 = tested on: NCI-H1650
Outline: as §1

NCI-H322M = tested on: NCI-H322M
Outline: as §1

NCI-H441 = tested on: NCI-H441
Outline: as §1

EPLC-272H = tested on: EPLC-272H
Outline: as §1

HCC-15 = tested on: HCC-15
Outline: as §1

H3255 = tested on: H3255
Outline: as §1

SW 900 = tested on: SW 900
Outline: as §1

201T = tested on: 201T
Outline: as §1

NCI-H2405 = tested on: NCI-H2405
Outline: as §1

NCI-H1734 = tested on: NCI-H1734
Outline: as §1

NCI-H1793 = tested on: NCI-H1793
Outline: as §1

NCI-H2170 = tested on: NCI-H2170
Outline: as §1

NCI-H2347 = tested on: NCI-H2347
Outline: as §1

NCI-H2023 = tested on: NCI-H2023
Outline: as §1

NCI-H520 = tested on: NCI-H520
Outline: as §1

PC-14 = tested on: PC-14
Outline: as §1

LOU-NH91 = tested on: LOU-NH91
Outline: as §1

NCI-H3122 = tested on: NCI-H3122
Outline: as §1

SMILES: O=c1cc(N2CCOCC2)oc2c(-c3cccc4c3sc3ccccc34)cccc12 + O=C(CCCCCCC(=O)Nc1ccccc1)NO [Vorinostat] (partner 1 µM)
- relative viability (NCI-H647; first compound 0.01 µM): 0.662
- relative viability (NCI-H647; first compound 0.03162 µM): 0.708
- relative viability (NCI-H647; first compound 0.1 µM): 0.462
- relative viability (NCI-H647; first compound 0.3162 µM): 0.695
- relative viability (NCI-H647; first compound 1 µM): 0.757
- relative viability (UMC-11; first compound 0.01 µM): 0.386
- relative viability (UMC-11; first compound 0.03162 µM): 0.368
- relative viability (UMC-11; first compound 0.1 µM): 0.365
- relative viability (UMC-11; first compound 0.3162 µM): 0.429
- relative viability (UMC-11; first compound 1 µM): 0.311
- relative viability (COR-L23; first compound 0.01 µM): 0.578
- relative viability (COR-L23; first compound 0.03162 µM): 0.503
- relative viability (COR-L23; first compound 0.1 µM): 0.473
- relative viability (COR-L23; first compound 0.3162 µM): 0.424
- relative viability (COR-L23; first compound 1 µM): 0.54
- relative viability (NCI-H1650; first compound 0.01 µM): 0.485
- relative viability (NCI-H1650; first compound 0.03162 µM): 0.692
- relative viability (NCI-H1650; first compound 0.1 µM): 0.547
- relative viability (NCI-H1650; first compound 0.3162 µM): 0.631
- relative viability (NCI-H1650; first compound 1 µM): 0.49
- relative viability (NCI-H322M; first compound 0.01 µM): 0.826
- relative viability (NCI-H322M; first compound 0.03162 µM): 0.92
- relative viability (NCI-H322M; first compound 0.3162 µM): 0.871
- relative viability (NCI-H322M; first compound 1 µM): 0.678
- relative viability (NCI-H441; first compound 0.01 µM): 0.731
- relative viability (NCI-H441; first compound 0.03162 µM): 0.704
- relative viability (NCI-H441; first compound 0.1 µM): 1.09
- relative viability (NCI-H441; first compound 0.3162 µM): 0.829
- relative viability (NCI-H441; first compound 1 µM): 0.724
- relative viability (EPLC-272H; first compound 0.01 µM): 0.539
- relative viability (EPLC-272H; first compound 0.03162 µM): 0.4
- relative viability (EPLC-272H; first compound 0.1 µM): 0.54
- relative viability (EPLC-272H; first compound 0.3162 µM): 0.358
- relative viability (EPLC-272H; first compound 1 µM): 0.5
- relative viability (HCC-15; first compound 0.01 µM): 0.839
- relative viability (HCC-15; first compound 0.03162 µM): 0.775
- relative viability (HCC-15; first compound 0.1 µM): 0.858
- relative viability (HCC-15; first compound 0.3162 µM): 0.765
- relative viability (HCC-15; first compound 1 µM): 0.847
- relative viability (H3255; first compound 0.01 µM): 0.83
- relative viability (H3255; first compound 0.03162 µM): 0.837
- relative viability (H3255; first compound 0.1 µM): 0.759
- relative viability (H3255; first compound 0.3162 µM): 0.765
- relative viability (H3255; first compound 1 µM): 0.558
- relative viability (SW 900; first compound 0.03162 µM): 0.508
- relative viability (SW 900; first compound 0.1 µM): 0.364
- relative viability (SW 900; first compound 0.3162 µM): 0.544
- relative viability (SW 900; first compound 1 µM): 0.359
- relative viability (201T; first compound 0.01 µM): 0.961
- relative viability (201T; first compound 0.03162 µM): 0.95
- relative viability (201T; first compound 0.1 µM): 0.982
- relative viability (201T; first compound 0.3162 µM): 0.959
- relative viability (201T; first compound 1 µM): 0.915
- relative viability (NCI-H2405; first compound 0.01 µM): 1.01
- relative viability (NCI-H2405; first compound 0.03162 µM): 1.04
- relative viability (NCI-H2405; first compound 0.1 µM): 1.04
- relative viability (NCI-H2405; first compound 0.3162 µM): 1.01
- relative viability (NCI-H2405; first compound 1 µM): 0.736
- relative viability (NCI-H1734; first compound 0.01 µM): 0.839
- relative viability (NCI-H1734; first compound 0.03162 µM): 0.819
- relative viability (NCI-H1734; first compound 0.1 µM): 0.631
- relative viability (NCI-H1734; first compound 0.3162 µM): 0.773
- relative viability (NCI-H1734; first compound 1 µM): 0.819
- relative viability (NCI-H1793; first compound 0.01 µM): 0.771
- relative viability (NCI-H1793; first compound 0.03162 µM): 0.612
- relative viability (NCI-H1793; first compound 0.1 µM): 0.672
- relative viability (NCI-H1793; first compound 0.3162 µM): 0.76
- relative viability (NCI-H1793; first compound 1 µM): 0.658
- relative viability (NCI-H2170; first compound 0.01 µM): 0.804
- relative viability (NCI-H2170; first compound 0.03162 µM): 0.882
- relative viability (NCI-H2170; first compound 0.1 µM): 0.697
- relative viability (NCI-H2170; first compound 0.3162 µM): 0.784
- relative viability (NCI-H2170; first compound 1 µM): 0.824
- relative viability (NCI-H2347; first compound 0.01 µM): 0.622
- relative viability (NCI-H2347; first compound 0.03162 µM): 0.547
- relative viability (NCI-H2347; first compound 0.1 µM): 0.534
- relative viability (NCI-H2347; first compound 0.3162 µM): 0.595
- relative viability (NCI-H2347; first compound 1 µM): 0.635
- relative viability (NCI-H2023; first compound 0.01 µM): 0.733
- relative viability (NCI-H2023; first compound 0.03162 µM): 0.76
- relative viability (NCI-H2023; first compound 0.1 µM): 0.786
- relative viability (NCI-H2023; first compound 0.3162 µM): 0.55
- relative viability (NCI-H2023; first compound 1 µM): 0.677
- relative viability (NCI-H520; first compound 0.01 µM): 0.775
- relative viability (NCI-H520; first compound 0.03162 µM): 0.755
- relative viability (NCI-H520; first compound 0.1 µM): 0.689
- relative viability (NCI-H520; first compound 0.3162 µM): 0.728
- relative viability (NCI-H520; first compound 1 µM): 0.794
- relative viability (PC-14; first compound 0.01 µM): 0.682
- relative viability (PC-14; first compound 0.03162 µM): 0.75
- relative viability (PC-14; first compound 0.1 µM): 0.713
- relative viability (PC-14; first compound 0.3162 µM): 0.84
- relative viability (PC-14; first compound 1 µM): 0.768
- relative viability (LOU-NH91; first compound 0.01 µM): 0.623
- relative viability (LOU-NH91; first compound 0.03162 µM): 0.881
- relative viability (LOU-NH91; first compound 0.1 µM): 0.894
- relative viability (LOU-NH91; first compound 0.3162 µM): 1.04
- relative viability (LOU-NH91; first compound 1 µM): 0.904
- relative viability (NCI-H3122; first compound 0.01 µM): 0.933
- relative viability (NCI-H3122; first compound 0.03162 µM): 1.02
- relative viability (NCI-H3122; first compound 0.1 µM): 1.04
- relative viability (NCI-H3122; first compound 0.3162 µM): 0.895
- relative viability (NCI-H3122; first compound 1 µM): 1.02
